# Source: US9718808B2, “Inhibitors of the renal outer medullary potassium channel” (Merck Sharp & Dohme Corp., priority 2014, dated 2017)
# Biological target: ROMK (Kir1.1) channel (Homo sapiens (Human), UniProt P48048)
# Test: Thallium Flux Assay
# Type: cell-based
# Experimental: A Thallium Flux Assay was performed on each of the final product compounds of the Examples. This assay has been described previously; see, e.g., PCT Published Application WO 2013/062900.
# Chain of ROMK (Kir1.1) channel (P48048 whole entry): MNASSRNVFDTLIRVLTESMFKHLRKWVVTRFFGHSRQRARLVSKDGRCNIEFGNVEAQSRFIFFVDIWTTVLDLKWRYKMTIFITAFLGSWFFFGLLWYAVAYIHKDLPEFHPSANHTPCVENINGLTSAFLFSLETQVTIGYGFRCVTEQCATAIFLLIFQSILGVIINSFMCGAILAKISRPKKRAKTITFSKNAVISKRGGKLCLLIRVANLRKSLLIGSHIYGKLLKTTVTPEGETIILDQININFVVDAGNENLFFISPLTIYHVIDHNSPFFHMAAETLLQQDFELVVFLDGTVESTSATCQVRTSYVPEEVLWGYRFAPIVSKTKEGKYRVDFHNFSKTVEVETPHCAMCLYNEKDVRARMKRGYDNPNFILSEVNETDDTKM
row,IC50 [nM],SMILES
1,130,"C[C@H]1C[C@]2(CC[C@H](NCc3ccc(-n4cnnn4)nc3)CC2)C(=O)N1C1=CC(=O)OC1 [Example 22, (3S,5s,8R)-3-methyl-2-(5-oxo-2,5-dihydrofuran-3-yl)-8-({[6-(1H-tetrazol-1-yl)pyridin-3-yl]methyl}amino)-2-azaspiro[4.5]decan-1-one]"
2,550,"CC1=C(N2CC[C@]3(CC[C@@H](NCc4ccc5c(c4)-c4nnnn4C5)CC3)C2=O)COC1=O [Example 47, (5r,8r)-2-(4-methyl-5-oxo-2,5-dihydrofuran-3-yl)-8-[(5H-tetrazolo[5,1-a]isoindol-8-ylmethyl)amino]-2-azaspiro[4.5]decan-1-one]"
3,300,CC1=C(N2CC[C@]3(CC[C@@H](N(C)[C@@H](CO)c4ccc(-n5cnnn5)nc4)CC3)C2=O)COC1=O [Example 102]
4,34,"CC1=C(N2CC[C@]3(CC[C@@H](N[C@@H](C)c4ccc(-n5cnnn5)nc4)CC3)C2=O)COC1=O [Example 9, (5S,8r)-2-(4-methyl-5-oxo-2,5-dihydrofuran-3-yl)-8-({(1S)-1-[6-(1H-tetrazol-1-yl)pyridin-3-yl]ethyl}amino)-2-azaspiro[4.5]decan-1-one]"
5,20,"CC1=C(N2CC[C@]3(CC[C@@H](N[C@@H](C)c4ccc(-n5cnnn5)cn4)CC3)C2=O)COC1=O [Example 29, (5S,8r)-2-(4-methyl-5-oxo-2,5-dihydrofuran-3-yl)-8-({(1S)-1-[5-(1H-tetrazol-1-yl)pyridin-2-yl]ethyl}amino)-2-azaspiro[4.5]decan-1-one]"
6,92,"CC1=C(N2CC[C@]3(CC[C@@H](N[C@H](C)c4ccc(-n5cnnn5)nn4)CC3)C2=O)COC1=O [Example 15, (5R,8r)-2-(4-methyl-5-oxo-2,5-dihydrofuran-3-yl)-8-({(1R)-1-[6-(1H-tetrazol-1-yl)pyridazin-3-yl]ethyl}amino)-2-azaspiro[4.5]decan-1-one]"
7,480,CC1=C(N2CC[C@]3(CC[C@@H](N(C)[C@H](CO)c4ccc(-n5cnnn5)nc4)CC3)C2=O)COC1=O [Example 86]
8,29,CC1=C(N2CC[C@]3(CC[C@@H](N(C)Cc4cnc(-n5cnnn5)cn4)CC3)C2=O)COC1=O [Example 92]
9,4.3,"CC1=C(N2CC[C@]3(CC[C@@H](NCc4ccc5c(c4)CCc4nnnn4-5)CC3)C2=O)COC1=O [Example 51, (5r,8r)-8-(((4,5-dihydrotetrazolo[1,5-a]quinolin-7-yl)methyl)amino)-2-(4-methyl-5-oxo-2,5-dihydrofuran-3-yl)-2-azaspiro[4.5]decan-1-one]"
10,70,"CC1=C(N2CC[C@]3(CC[C@](C)(NCc4ccc(-n5cnnn5)nn4)CC3)C2=O)COC1=O [Example 42, (5s,8s)-8-methyl-2-(4-methyl-5-oxo-2,5-dihydrofuran-3-yl)-8-({[6-(1H-tetrazol-1-yl)pyridazin-3-yl]methyl}amino)-2-azaspiro[4.5]decan-1-one]"
11,16,"CC1=C(N2CC[C@]3(CC[C@@H](NCc4ccc(-n5cnnn5)nc4)CC3)C2=O)COC1=O [Example 5, (5r,8r)-2-(4-methyl-5-oxo-2,5-dihydrofuran-3-yl)-8-({[6-(1H-tetrazol-1-yl)pyridin-3-yl]methyl}amino)-2-azaspiro[4.5]decan-1-one]"
12,2000,"O=C1C=C(N2CC[C@]3(CC[C@H](NCc4cnc(-n5cnnn5)cn4)CC3)C2=O)CO1 [Example 73, (5s,8s)-8-(((5-(1H-tetrazol-1-yl)pyrazin-2-yl)methyl)amino)-2-(5-oxo-2,5-dihydrofuran-3-yl)-2-azaspiro[4.5]decan-1-one]"
13,34,CCN(Cc1ccc(-n2cnnn2)cn1)[C@H]1CC[C@]2(CCN(C3=C(C)C(=O)OC3)C2=O)CC1 [Example 138]
14,6,"CC1=C(N2CC[C@]3(CC[C@@H](NCc4ccc5c(c4F)Cn4nnnc4-5)CC3)C2=O)COC1=O [Example 59, (5r,8r)-8-(((6-fluoro-5H-tetrazolo[5,1-a]isoindol-7-yl)methyl)amino)-2-(4-methyl-5-oxo-2,5-dihydrofuran-3-yl)-2-azaspiro[4.5]decan-1-one]"
15,22,CC1=C(N2CC[C@]3(CC[C@@H](N(C)Cc4nnc(-n5cnnn5)cc4C)CC3)C2=O)COC1=O [Example 107]

# The next lines start with the molecule.
row,SMILES,IC50 [nM]
1,"CC1=C(N2CC[C@]3(CC[C@@H](N[C@@H](C)c4ccc5c(c4)CCc4nnnn4-5)CC3)C2=O)COC1=O [Example 21, (5S,8r)-8-{[(1S)-1-(4,5-dihydrotetrazolo[1,5-a]quinolin-7-yl)ethyl]amino}-2-(4-methyl-5-oxo-2,5-dihydrofuran-3-yl)-2-azaspiro[4.5]decan-1-one]",44
2,"CC1=C(N2CC[C@]3(CC[C@@H](NCc4cc5c(cc4C)-c4nnnn4C5)CC3)C2=O)COC1=O [Example 61, (5r,8r)-2-(4-methyl-5-oxo-2,5-dihydrofuran-3-yl)-8-(((8-methyl-5H-tetrazolo[5,1-a]isoindol-7-yl)methyl)amino)-2-azaspiro[4.5]decan-1-one]",23
3,"C[C@H]1C[C@]2(CC[C@H](NCc3ccc4c(c3)Cn3nnnc3-4)CC2)C(=O)N1C1=CC(=O)OC1 [Example 62, (3S,5s,8R)-8-(((5H-tetrazolo[5,1-a]isoindol-7-yl)methyl)amino)-3-methyl-2-(5-oxo-2,5-dihydrofuran-3-yl)-2-azaspiro[4.5]decan-1-one]",20
4,CC1=C(N2CC[C@]3(CC[C@@H](N(C)Cc4ccc5c(c4)CCc4nnnn4-5)CC3)C2=O)COC1=O [Example 112],32
5,"CC1=C(N2CC[C@]3(CC[C@@H](N[C@H](C)c4ccc5c(c4)Cn4nnnc4-5)CC3)C2=O)COC1=O [Example 30, (5R,8r)-2-(4-methyl-5-oxo-2,5-dihydrofuran-3-yl)-8-{[(1R)-1-(5H-tetrazolo[5,1-a]isoindol-7-yl)ethyl]amino}-2-azaspiro[4.5]decan-1-one]",150
6,CC1=C(N2CC[C@]3(CC[C@@H](N(C)Cc4ccc(-n5ncnn5)cc4)CC3)C2=O)COC1=O [Example 109],3.4
7,CC1=C(N2CC[C@]3(CC[C@@H](N(C)Cc4ccc(-n5ncnn5)nn4)CC3)C2=O)COC1=O [Example 113],36
8,CC1=C(N2CC[C@]3(CC[C@](C)(N(C)Cc4cnc(-n5cnnn5)cn4)CC3)C2=O)COC1=O [Example 127],91
9,"CC1=C(N2CC[C@]3(CC[C@@H](NC[C@H](O)c4ccc5c(c4C)COC5=O)CC3)C2=O)COC1=O [Example 78, (5r,8r)-8-(((R)-2-hydroxy-2-(4-methyl-1-oxo-1,3-dihydroisobenzofuran-5-yl)ethyl)amino)-2-(4-methyl-5-oxo-2,5-dihydrofuran-3-yl)-2-azaspiro[4.5]decan-1-one]",210
10,"CC1=C(N2CC[C@]3(CC[C@H](NC[C@H](O)c4ccc5c(c4C)COC5=O)CC3)C2=O)COC1=O [Example 79, (5S,8s)-8-{[(2R)-2-hydroxy-2-(4-methyl-1-oxo-1,3-dihydro-2-benzofuran-5-yl)ethyl]amino}-2-(4-methyl-5-oxo-2,5-dihydrofuran-3-yl)-2-azaspiro[4.5]decan-1-one]",280
11,CN(Cc1cnc(-n2cnnn2)cn1)C1CCC2(CC1)CCN(C1=CC(=O)OC1)C2=O (stereo not shown) [Example 128],93
12,CC1=C(N2CC[C@]3(CC[C@@H](N(C)Cc4ccc5c(c4)Cn4nnnc4-5)CC3)C2=O)COC1=O [Example 106],8.8
13,CC1=C(N2CC[C@]3(CC[C@@H](N(C)Cc4ccc5c(ccc6nnnn65)c4)CC3)C2=O)COC1=O [Example 96],21
14,CC1=C(N2CC[C@]3(CC[C@@H](N(C)Cc4ccc5c(c4F)Cn4nnnc4-5)CC3)C2=O)COC1=O [Example 121],23
15,CC1=C(N2CCC3(CCC(N(C)C[C@H](O)c4ccc5c(c4C)COC5=O)CC3)C2=O)COC1=O (stereo partly shown) [Example 124],64
16,"CC1C[C@]2(CC[C@@H](NCc3cnc(-n4cnnn4)cn3)CC2)C(=O)N1C1=CC(=O)OC1 (stereo partly shown) [Example 49, (5r,8r)-3-methyl-2-(5-oxo-2,5-dihydrofuran-3-yl)-8-({[5-(1H-tetrazol-1-yl)pyrazin-2-yl]methyl}amino)-2-azaspiro[4.5]decan-1-one]",240
